Experimental data from patent US20130072430A1, “METHODS FOR TREATMENT OR PROPHYLAXIS OF KIDNEY OR LIVER DYSFUNCTION” (NPS PHARMACEUTICALS, INC., priority 2010, published 2013).

Tested on: Human patients with short bowel syndrome
Assay: Example 3: change from baseline to week 24 in liver enzyme levels (ALP, ALT, AST, total bilirubin, GGTP) by responder status (reduced parenteral nutrition)
Type: in vivo
Conditions: 0.05 mg/kg/day
Experimental: In this example the data presented in Example 2 are analyzed to evaluate whether the beneficial effects of teduglutide on liver function tests are related to the reduction of parenteral nutrition volume.
Table 5 depicts the change in liver enzyme levels from baseline to week 24 in responders and non-responders. Responders are human patients with reduced parenteral nutrition, while non-responders are human patients without reduced parenteral nutrition. Human patients either received placebo or teduglutide at 0.05 mg/kg/day. Known biomarkers of liver function were monitored for 24 weeks. The liver biomarkers tested included ALP, ALT, AST, total bilirubin and GGTP.
Table 6 depicts the change in liver enzyme levels (ALP, ALT, AST, total bilirubin and GGTP), as presented in Table 5, and stratifies them by treatment group (placebo versus teduglutide at 0.05 mg/kg/day) and responder status (responder versus non-responder).

## CC[C@H](C)[C@H](NC(=O)[C@H](Cc1ccccc1)NC(=O)[C@H](CC(=O)O)NC(=O)[C@H](CCCNC(=N)N)NC(=O)[C@H](C)NC(=O)[C@H](C)NC(=O)[C@H](CC(C)C)NC(=O)[C@H](CC(N)=O)NC(=O)[C@H](CC(=O)O)NC(=O)[C@H](CC(C)C)NC(=O)[C@@H](NC(=O)[C@@H](NC(=O)[C@H](CC(N)=O)NC(=O)[C@H](CCSC)NC(=O)[C@H](CCC(=O)O)NC(=O)[C@H](CC(=O)O)NC(=O)[C@H](CO)NC(=O)[C@H](Cc1ccccc1)NC(=O)[C@H](CO)NC(=O)CNC(=O)[C@H](CC(=O)O)NC(=O)CNC(=O)[C@@H](N)Cc1c[nH]cn1)[C@@H](C)O)[C@@H](C)CC)C(=O)N[C@@H](CC(N)=O)C(=O)N[C@@H](Cc1c[nH]c2ccccc12)C(=O)N[C@@H](CC(C)C)C(=O)N[C@H](C(=O)N[C@@H](CCC(N)=O)C(=O)N[C@H](C(=O)N[C@@H](CCCCN)C(=O)N[C@H](C(=O)N[C@H](C(=O)N[C@@H](CC(=O)O)C(=O)O)[C@@H](C)O)[C@@H](C)CC)[C@@H](C)O)[C@@H](C)CC [teduglutide]
Baseline to week 24
  relation of effect on liver function tests to reduction of parenteral nutrition (responders vs non-responders): the major part of the effect is not mediated through the reduction of parenteral nutrition
Non-responder, n=11
  ALKALINE PHOSPHATASE change from Baseline to Week 24, Mean: −13.82 U/L
  ALKALINE PHOSPHATASE change from Baseline to Week 24, Median: −7 U/L
  ALT change from Baseline to Week 24, Mean: −3.82 U/L
  ALT change from Baseline to Week 24, Median: −3 U/L
  AST change from Baseline to Week 24, Mean: −2.18 U/L
  AST change from Baseline to Week 24, Median: −2 U/L
  BILIRUBIN, TOTAL change from Baseline to Week 24, Mean: -2.43 µmol/L
  BILIRUBIN, TOTAL change from Baseline to Week 24, Median: -1.7 µmol/L
  GGTP change from Baseline to Week 24, Mean: −1.91 U/L
  GGTP change from Baseline to Week 24, Median: 3 U/L
Responder, n=27
  ALKALINE PHOSPHATASE change from Baseline to Week 24, Mean: −35.52 U/L
  ALKALINE PHOSPHATASE change from Baseline to Week 24, Median: −34 U/L
  ALT change from Baseline to Week 24, Mean: −17.48 U/L
  ALT change from Baseline to Week 24, Median: −14 U/L
  AST change from Baseline to Week 24, Mean: −7.30 U/L
  AST change from Baseline to Week 24, Median: −7 U/L
  BILIRUBIN, TOTAL change from Baseline to Week 24, Mean: -4.19 µmol/L
  BILIRUBIN, TOTAL change from Baseline to Week 24, Median: -2.4 µmol/L
  GGTP change from Baseline to Week 24, Mean: −18.41 U/L
  GGTP change from Baseline to Week 24, Median: −10 U/L
Total, n=38
  ALKALINE PHOSPHATASE change from Baseline to Week 24, Mean: −29.24 U/L
  ALKALINE PHOSPHATASE change from Baseline to Week 24, Median: −24.5 U/L
  ALT change from Baseline to Week 24, Mean: −13.53 U/L
  ALT change from Baseline to Week 24, Median: −7.5 U/L
  AST change from Baseline to Week 24, Mean: −5.82 U/L
  AST change from Baseline to Week 24, Median: −5 U/L
  BILIRUBIN, TOTAL change from Baseline to Week 24, Mean: -3.68 µmol/L
  BILIRUBIN, TOTAL change from Baseline to Week 24, Median: -2.35 µmol/L
  GGTP change from Baseline to Week 24, Mean: −13.63 U/L
  GGTP change from Baseline to Week 24, Median: −6 U/L
By Treatment
  ALKALINE PHOSPHATASE change from Baseline to Week 24, LS Means: −24.67 U/L
  ALT change from Baseline to Week 24, LS Means: −10.65 U/L
  AST change from Baseline to Week 24, LS Means: −4.74 U/L
  BILIRUBIN, TOTAL change from Baseline to Week 24, LS Means: -3.31 µmol/L
  GGTP change from Baseline to Week 24, LS Means: −10.16 U/L
